Patent US20040048791A1, “Method for treating neoplastic cells using cycloprodigiosin or salt thereof” (priority 2002, published 2004)
“Also recorded” adds a separate entry of the source. Structures can show the parent of a compound that is named as a salt.

What was measured:
NF-κB [1] = test: NF-κB luciferase gene reporter assay (pIG3Luc) in HeLa cells; type: cell-based
Source text: The plasmids, pRKF-IKKα and pRKHA-IKKβ have been described previously (Oka, S., Kamata, H., Kamata, K., Yagisawa, H. and Hirata, H. (2000) FEBS Lett., 472, 196-202). pRKF-IKKαEE and pRK-HA-IKKβEE encode constitutively active mutants of IKKα, in which 176 and 180 serine residues in an activation loop are replaced by glutamic acid residues, and IKKβ, in, which 177 and 181 serine residues are replaced by glutamic acid residues, respectively. A reporter plasmid pIG3Luc for NF-κB encodes triple NF-κB binding site sequences (AGCTTCAGAGGGGACTRANSCRIPTIONCCGAGAGG) (SEQ ID NO: 2) followed by the luciferase gene. A control plasmid, pBKRLuc, was obtained from Toyobo (Toyo B-Net Co., Japan). pcDNAF-MEKK1, pRKF-p65, pEFBOSHA-Rac1-DA, and pEFBOSHA-Cdc42-DA, are the expression plasmids for MEKK1, the NF-κB subunit p65, constitutively active Rac1 and Cdc42, respectively.
(§1) Luciferase gene reporter assay and Kinase assays of IKK: HeLa cells were transfected with the reporter plasmids described above using Lipofectin (GIBCO BRL). After 24-48 hr, the luciferase activity was determined using the Luciferase Assay System (Promega). The kinase activity of IKKα and IKKβ were analyzed by immune complex kinase assay as described previously (Oka, S., Kamata, H., Kamata, K., Yagisawa, H. and Hirata, H. (2000) FEBS Lett. 472, 196-202). The substrates was using GST-IκBα(1-55) or GST-p65(399-551).
The gene expression induction by NF-κB activation plays the most important role among “life” signals by TNFα. Therefore, the NF-κB reporter gene was introduced into the cells to analyze the effect of cPrG-HCl by luciferase assay.
NF-κB is translocated into the nucleus also by activation with low-molecular-weight G proteins Rac1 and Cdc42 or MEKK1 and induces gene expression. An activated Rac1, Cdc42 or MEKK1 expression plasmid was introduced together with the NF-κB reporter gene into cells and the effect of cPrG-HCl on NF-κB activation was measured by luciferase assay (FIG. 4A and FIG. 4B).

NF-κB [2] = test: NF-κB luciferase reporter assay in U373, 293, COS7 and MKN45 cells; type: cell-based, human; African green monkey; conditions: all the cells tested: U373, 293, COS7, MKN45; FIGS. 6A to 6F
Method: (§2) In order to find out whether the suppression of NF-κB and AP-1 activation was specific to HeLa cells used above, analysis was made with various kind of cells. The cells used were U373 cells (human brain tumor cells), 293 cells (human embryo-derived kidney cells), COS7 cells (African green monkey kidney-derived cells), and MKN45 cells (human gastric tumor cells).
(§3) The NF-κB reporter plasmid pIG3Luc was incorporated into cells by transfection. After 24 hours, the cells were pretreated with cPrG-HCl at a specified concentration for 1 hour and then stimulated with TNFα (20 ng/ml) or PMA (1 μg/ml) for 4 hours, after which luciferase activity was measured. Each activity was corrected for the amount of protein.

AP-1 [3] = test: AP-1 luciferase reporter assay (pAPLuc) in HeLa cells; type: cell-based
Method: In the same manner as described in Experimental example 1, HeLa cells were transfected with the AP-1 reporter gene plasmid pAPLuc. After 20 hours, the cells were pretreated with cPrG-HCl (1 μM) for 1 hour and then stimulated with TNFα (20 ng/ml) or PMA (1 μg/ml) for 4 hours, after which, luciferase activity was measured. Each activity was corrected for the amount of protein.

AP-1 [4] = test: AP-1 luciferase reporter assay in various kinds of cells; type: cell-based, human; African green monkey; conditions: all the cells tested: U373, 293, COS7, MKN45; FIGS. 6A to 6F
Method: as §2, §3

IKK [5] = molecular target: T1, IKK (Homo sapiens, UniProt O14920+O15111); test: IKK activation in stimulated cells (immune complex kinase assay); type: cell-based; conditions: FIG. 2D
T1 construct: host or cells: HeLa cells (inferred)
Method: as §1
In order to find out the mechanism of NF-κB suppression by cPrG-HCl, the effect on the signal transduction system, which functions upstream of NF-κB, was analyzed. First, the effect of cPrG-HCl on IKK activity was examined. […] Next, the effect of cPrG-HCl on phosphorylation and degradation of IκB was analyzed by Western blotting using anti-IκB antibody (FIG. 2E). In FIG. 2E, black arrows indicate IκBα and white arrows indicate phosphorylated IκBα. […] Namely, cPrG-HCl suppressed NF-κB activation without suppressing the steps up to IκB degradation. Accordingly, nuclear translocation of NF-κB was analyzed by Western blotting using p65 and p50 which are components of NF-κB (FIG. 2F). […] Further, the state of NF-κB activation in the nucleus was analyzed by EMSA (electrophoretic mobility shift assay) (FIG. 2G). In FIG. 2G, “n. s.” means nonspecific band.

PKA = PKA (Homo sapiens, UniProt P17612); test: PKA activity in vitro; type: biochemical; conditions: FIG. 13, hydrochloride
Source text: (§4) Accordingly, in order to identify the p65 kinase which cPrG-HCl suppressed, the effect of cPrG-HCl on PKA (FIG. 13), casein kinase II (CKII) (FIG. 12), and IκB kinase (IKK) (FIG. 14) was studied in vitro.

casein kinase II (CKII) = casein kinase II (CKII) (Homo sapiens, UniProt P68400); test: Casein kinase II activity in vitro; type: biochemical; conditions: FIG. 12, hydrochloride
Source text: as §4

IKK [6] = molecular target: T1, IKK; conditions: earlier abstract of the inventors (Kamata et al., 2000); cited from earlier work

T1 sequence (O15111 whole entry): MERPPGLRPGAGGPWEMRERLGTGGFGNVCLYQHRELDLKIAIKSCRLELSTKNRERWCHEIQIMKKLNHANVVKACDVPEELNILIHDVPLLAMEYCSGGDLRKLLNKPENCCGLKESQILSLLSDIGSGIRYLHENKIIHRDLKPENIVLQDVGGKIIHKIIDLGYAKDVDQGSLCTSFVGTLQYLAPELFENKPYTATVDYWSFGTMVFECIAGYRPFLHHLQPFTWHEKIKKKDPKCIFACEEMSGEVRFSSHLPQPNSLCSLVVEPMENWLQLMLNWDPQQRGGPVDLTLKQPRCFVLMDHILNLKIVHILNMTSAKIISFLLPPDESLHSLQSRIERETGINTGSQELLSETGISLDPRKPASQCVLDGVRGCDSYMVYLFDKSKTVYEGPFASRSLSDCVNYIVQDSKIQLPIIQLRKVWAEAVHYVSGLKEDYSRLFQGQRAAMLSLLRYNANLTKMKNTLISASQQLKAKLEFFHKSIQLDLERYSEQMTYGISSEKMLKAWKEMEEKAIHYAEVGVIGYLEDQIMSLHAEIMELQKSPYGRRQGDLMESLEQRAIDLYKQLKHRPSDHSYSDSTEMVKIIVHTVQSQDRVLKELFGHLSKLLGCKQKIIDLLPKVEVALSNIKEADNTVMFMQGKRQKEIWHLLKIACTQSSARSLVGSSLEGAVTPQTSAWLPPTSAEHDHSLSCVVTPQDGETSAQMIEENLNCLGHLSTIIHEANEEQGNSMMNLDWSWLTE
T1 sequence (O14920 whole entry): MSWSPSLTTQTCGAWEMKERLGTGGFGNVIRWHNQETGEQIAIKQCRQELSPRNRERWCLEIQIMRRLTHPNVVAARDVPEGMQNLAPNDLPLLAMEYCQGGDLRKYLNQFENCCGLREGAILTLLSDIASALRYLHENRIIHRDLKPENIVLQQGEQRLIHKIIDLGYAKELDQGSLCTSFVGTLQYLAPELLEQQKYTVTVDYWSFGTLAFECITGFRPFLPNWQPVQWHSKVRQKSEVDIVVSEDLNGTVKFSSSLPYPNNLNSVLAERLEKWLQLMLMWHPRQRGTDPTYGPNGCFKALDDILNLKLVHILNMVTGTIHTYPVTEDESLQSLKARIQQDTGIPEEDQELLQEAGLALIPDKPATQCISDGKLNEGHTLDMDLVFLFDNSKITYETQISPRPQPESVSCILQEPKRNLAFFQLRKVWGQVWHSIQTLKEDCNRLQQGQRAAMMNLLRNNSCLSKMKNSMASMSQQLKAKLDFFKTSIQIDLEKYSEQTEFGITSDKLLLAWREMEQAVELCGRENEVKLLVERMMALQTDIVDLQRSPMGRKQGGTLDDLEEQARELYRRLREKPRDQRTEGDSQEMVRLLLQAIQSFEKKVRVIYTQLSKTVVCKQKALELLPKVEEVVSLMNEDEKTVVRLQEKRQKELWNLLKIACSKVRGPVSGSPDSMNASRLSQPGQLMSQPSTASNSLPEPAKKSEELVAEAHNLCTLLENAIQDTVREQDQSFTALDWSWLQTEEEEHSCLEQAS
T1 sequence (Q9Y6K9 whole entry partner): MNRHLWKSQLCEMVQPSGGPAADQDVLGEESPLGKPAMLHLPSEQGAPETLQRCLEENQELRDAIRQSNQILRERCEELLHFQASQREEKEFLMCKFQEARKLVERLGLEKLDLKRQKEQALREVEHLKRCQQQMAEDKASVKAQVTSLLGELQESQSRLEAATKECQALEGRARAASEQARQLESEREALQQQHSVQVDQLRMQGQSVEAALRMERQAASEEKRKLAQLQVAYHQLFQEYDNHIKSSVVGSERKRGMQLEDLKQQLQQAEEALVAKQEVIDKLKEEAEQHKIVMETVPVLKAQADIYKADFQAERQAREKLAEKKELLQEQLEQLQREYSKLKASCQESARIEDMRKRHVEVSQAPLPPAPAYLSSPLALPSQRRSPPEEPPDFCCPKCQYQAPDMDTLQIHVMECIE
casein kinase II (CKII), sequence (P68400 whole entry): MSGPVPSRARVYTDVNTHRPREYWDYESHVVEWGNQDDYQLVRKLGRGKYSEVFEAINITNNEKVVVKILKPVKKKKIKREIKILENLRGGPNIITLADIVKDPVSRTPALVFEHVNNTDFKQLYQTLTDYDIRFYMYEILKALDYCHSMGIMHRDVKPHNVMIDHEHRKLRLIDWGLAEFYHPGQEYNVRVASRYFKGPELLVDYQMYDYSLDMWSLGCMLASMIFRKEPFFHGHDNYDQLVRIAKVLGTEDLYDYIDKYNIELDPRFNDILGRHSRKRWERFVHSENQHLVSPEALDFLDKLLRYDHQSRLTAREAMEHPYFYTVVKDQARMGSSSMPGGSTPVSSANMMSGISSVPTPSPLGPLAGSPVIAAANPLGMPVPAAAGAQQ

COC1=CC(c2ccc[nH]2)=N/C1=C\c1[nH]c(C)c2c1C(C)CCC2 (centres unmarked) [cPrG-HCl, Cycloprodigiosin hydrochloride]
NF-κB-dependent gene expression induced by IKKα (NF-κB [1]): Suppresses
NF-κB-dependent gene expression induced by IKKβ (NF-κB [1]): Suppresses
NF-κB-dependent gene expression induced by p65 (NF-κB [1]): Suppresses
PMA-induced activation of NF-κB (NF-κB [1]; FIG. 3A): Suppresses
TNFα-induced NF-κB activation (gene expression induction, luciferase) (NF-κB [1]; HeLa cells, FIG. 2A, 2C, hydrochloride): inhibited; also recorded: concentration-dependently suppressed
NF-κB activation induced by MEKK1 (NF-κB [1]; MEKK1 expression plasmid with reporter gene, FIG. 4): suppressed
NF-κB activation induced by Cdc42 (NF-κB [1]; activated Cdc42 expression plasmid with reporter gene, FIG. 4): suppressed
NF-κB activation induced by Rac1 (NF-κB [1]; activated Rac1 expression plasmid with reporter gene, FIG. 4): suppressed
TNFα-induced NF-κB activation (NF-κB [1]; in the presence of imidazole, FIG. 2C): suppressed
NF-κB transcriptional activation (NF-κB [2]): suppressed
AP-1 transcriptional activity (AP-1 [3]; HeLa cells, 1 μM, TNFα (20 ng/ml) or PMA (1 μg/ml), FIG. 5): significantly suppressed
PMA-induced AP-1 transcriptional activation (AP-1 [3]; in the presence of imidazole): suppressed
AP-1 transcriptional activation (AP-1 [4]): suppressed
TNFα-induced IKK activation (IKK [5]): did not suppressed
effect on PKA activity (PKA): does not directly suppress; also recorded: no suppressive effect
effect on casein kinase II (CKII) activity (casein kinase II (CKII)): does not directly suppress; also recorded: no suppressive effect
IKK activation (IKK [6]): no suppressive effect
